# Measurements as given in patent US20040242676A1, “Method of mitigating the adverse effects of IL-2” (priority 2003, published 2004).
# Where two headings read alike, the source gives them in different places.
# Assays:
# [1] = Pharmacokinetics of suspension and solution in the rat; format: in vivo; settings: gavage, 100 mg/kg; for AUC: trapezoidal rule
# Protocol: Adult male Munich-Wistar rats (250 g, Charles River Laboratories) received by gavage a suspension of either HMP or LMP LBA in polyethylene glycol 400 at 100 mg/kg or 100 mg/kg of an equal mass of the HMP and LMP forms in solution at pH 7.5. Non-compartmental pharmacokinetics were determined and appear below in Table 3.
# [2] = system: Human subjects; assay: Effect of LMP LBA and HMP LBA on hepatotoxicity in humans (alanine aminotransferase); format: in vivo
# Protocol: Human subjects between the ages of 18 and 70 received every 8 hours single capsules containing either the LMP LBA or the HMP LBA form. The drug is prepared as a fine powder and then mixed as drug/excipients at 20/80 wt %/wt % where excipients consist of equal weights of lactose and hydroxypropyl methylcellulose. The intention of dosing was to examine the effect of increasing doses of each LBA on safety and tolerability. Standard laboratory parameters were measured, including complete blood count, chemistry panel 20, urinary analysis, and electrocardiogram (ECG). Measurements of the laboratory tests were made daily except for the ECG which was measured at baseline, 1 week, and 1 week after cessation of dosing. There were no differences in the safety profiles with the exception of liver function testing.
# Because the liver plays a central role in the metabolism of drugs, the effect a drug has on liver function is an important effect to consider. An indicator of an adverse effect that a drug may have on the liver is the peak change from baseline of alanine aminotransferase (ALT). […] A significant increase of ALT is generally an increase of more than 2.
# [3] = Dissolution of LMP and HMP forms as a function of pH; format: physicochemical; settings: for Dissolution (%): 10 mg in 100 mL water, 37° C., 15 mins; for AUC of dissolution over the range of pH: pH 1.2 to 7.5
# Protocol: The LMP and HMP forms of the LBA of formula (I) were prepared in accordance with a process described in Examples 1 and 2, respectively. The pH of each of multiple 100 mL aliquots of distilled water was adjusted within the range of 1.2 to 7.5. Ten mg of either the LMP or HMP forms, finely ground with mortar and pestle, were placed into separate aliquots and then stirred at 37° C. for 15 mins. The dissolution characteristic of the LMP and HMP forms was measured at each pH and expressed as a percentage of the whole. Areas-under-the curve (AUCS) were calculated over the range of pH values tested. [Since the ordinate values are expressed as % dissolution and the abscissa values are expressed as pH units, then the units of AUC is expressed as the product of % dissolution times pH units or, alternatively, “%·log[[…]]” Results appear below in Table 2.
# [4] = system: LTB4 chemotaxis; assay: Inhibition of LTB4 chemotaxis; format: cell-based
# Excerpt: (§1) A series of tests were run to determine the in vitro and in vivo pharmacology properties of the HMP LBA of this invention. A summary of the results of these tests appear below.
# Inhibition of LTB4 chemotaxis
# [5] = system: guinea pigs; assay: Inhibition of 12 (R)-HETE in guinea pigs; format: in vivo, guinea pig; settings: Cavia porcellus, po; i.g.
# Excerpt: as §1
# Inhibition of 12 (R)—HETE in guinea pigs
# [6] = system: guinea pigs; assay: Inhibition of LTB4 chemotaxis in guinea pigs; format: in vivo, guinea pig; settings: Cavia porcellus, po; i.g.
# Excerpt: as §1
# Inhibition of LTB4 chemotaxis in guinea pigs
# [7] = system: patients with metastatic renal carcinoma; settings: for number of doses of IL-2 that could be tolerated, as related to the dose of the LBA: FIG. 2, p<0.05; for number of doses of IL-2 that could be tolerated, as related to the plasma level of the LBA: FIG. 3, p<0.03
# Protocol: PROLEUKIN® IL-2 is administered to the patient in accordance with the labeling instructions (in brief, 600,000 IU/kg every 8 hours as tolerated). […] Therefore, 16 doses of the LA compound would be given during this same five-day period. […] These two courses constitute one cycle of IL-2.
# Accordingly, the number of doses of IL-2 that can be given constitutes the single best measure of the tolerability of IL-2. The response rate, as measured by tumor shrinkage or disappearance, is the measure of antitumor activity.
# The scheduled dosing regimen of IL-2 was 3× daily for a total of 14 doses over 5 days, followed by 9 days without IL-2, and then a repeat of the initial 14 doses over 5 days. The dose of IL-2 was 600,000 IU/kg administered intravenously every 8 hours.
# [8] = system: LTB4 synthesis; assay: Inhibition of LTB4 synthesis; format: biochemical
# Excerpt: as §1
# Inhibition of LTB4 synthesis
# [9] = system: LTA4 conversion into LTB4; assay: Inhibition of LTA4 conversion into LTB4; format: biochemical
# Excerpt: as §1
# Inhibition of LTA4 conversion into LTB4
# [10] = system: guinea pig ear; assay: Inhibition of calcium ionophore dermal inflammation in the guinea pig ear; settings: in vivo
# Excerpt: as §1
# Inhibition of calcium ionophore dermal inflammation in the guinea pig ear
# [11] = system: LTB4-induced neutrophil granulation; assay: Inhibition of LTB4-induced neutrophil granulation; format: cell-based
# Excerpt: as §1
# Inhibition of LTB4-induced neutrophil granulation
# [12] = system: human neutrophil adhesion to LTB4-stimulated umbilical vein endothelial cells; assay: Inhibition of human neutrophil adhesion to LTB4-stimulated umbilical vein endothelial cells; format: cell-based
# Excerpt: as §1
# Inhibition of human neutrophil adhesion to LTB4-stimulated umbilical vein endothelial cells
# [13] = system: rats and guinea pig; assay: Inhibition of acetic acid colonic inflammation in rats and guinea pig; format: in vivo; settings: po; i.g.
# Excerpt: as §1
# Inhibition of acetic acid colonic inflammation in rats and guinea pig
compound,measurement,setting,value
"CCCc1c(OCCCOc2ccc(C(C)=O)c(OC)c2CCC)ccc2c1OC(C(=O)O)CC2 (racemic) [LMP LBA, (±)-7-[3-(4-acetyl-3-methoxy-2-propylphenoxy)-propoxy]3,4-dihydro-8-propyl-2H-1-benzopyran-2-carboxylic acid]",Tmax,[1]; listed as LMP,0.7 h
same,Cmax,"[1]; male, Munich-Wistar, blood, po, read-out: Cmax",10400 ng/mL
same,AUC,"[1]; male, Munich-Wistar, blood, po, read-out: AUC",57000 ng·h/mL
same,tolerability (hepatotoxicity),[2]; 150 mg daily for up to 14 consecutive days (total target dose 2100 mg),not well tolerated
same,subjects withdrawn from dosing because of adverse changes in alanine aminotransferase levels,[2]; 60 and 150 mg/day,6/6
same,Peak Change from Baseline Alanine Aminotransferase (multiple),"[2]; daily dose 60 mg, cumulative 300 mg over 5 days",2.5 multiple
same,Peak Change from Baseline Alanine Aminotransferase (multiple),"[2]; daily dose 150 mg, cumulative 750 mg over 5 days, listed as LMP",2.5 multiple
same,Dissolution (%),[3]; pH 1.2,0%
same,AUC of dissolution over the range of pH,[3]; listed as LMP,284 %·pH units
same,Dissolution (%),[3]; pH 3.0,0%
same,Dissolution (%),[3]; pH 4.5,0%
same,Dissolution (%),"[3]; pH 5.0, listed as LMP",20%
same,Dissolution (%),"[3]; pH 5.5, listed as LMP",48%
same,Dissolution (%),"[3]; pH 6.0, listed as LMP",82%
same,Dissolution (%),"[3]; pH 6.5, listed as LMP",96%
same,Dissolution (%),"[3]; pH 7.0, listed as LMP",99%
same,Dissolution (%),[3]; pH 7.5,100%
"CCCc1c(OCCCOc2ccc(C(C)=O)c(OC)c2CCC)ccc2c1OC(C(=O)O)CC2 (racemic) [HMP LBA, (±) 7-[3-(4-acetyl-3-methoxy-2-propylphenoxy)propoxy]-3,4-dihydro-8-propyl-2H-1-benzopyran-2-carboxylic acid]","Inhibition of LTB4 chemotaxis, range",[4],0.3 to 3.0 µM
same,ED50,[5],20 mg/kg
same,ED50,[6],0.6 mg/kg
same,"number of doses of IL-2 that could be tolerated, as related to the dose of the LBA",[7]; FIG. 4,rose
same,"number of doses of IL-2 that could be tolerated, as related to the dose of the LBA","[7]; FIG. 4, listed as LBA",increases
same,"number of doses of IL-2 that could be tolerated, as related to the plasma level of the LBA",[7],rose
same,"number of doses of IL-2 that could be tolerated, as related to the plasma level of the LBA",[7]; listed as LBA,increases
same,frequency of serious IL-2 events,"[7]; HMP LBA doses at or above 250 mg/day, 5/27",19%
same,frequency of serious IL-2 events,"[7]; HMP LBA doses of <250 mg/day, 13 events in 35 patients",38%
same,frequency of IL-2 induced serious adverse clinical events as total exposure to IL-2 increased,"[7]; coadministration of HMP LBA, FIG. 4",significantly declined
same,response rate to treatment with IL-2 under LBA treatment,"[7]; human, in vivo",not diminished
same,tolerability,"[7]; oral, 75-900 mg/day, co-administered with IL-2",well tolerated
same,maximal tolerated dose,"[7]; oral, co-administered with IL-2, 62 subjects",> 900 mg/day
same,concentration in the plasma as a function of dose,[7]; p<0.02,rose linearly in a dose-proportional manner
same,IC50,[8],2.1 µM
same,IC50,[9],20 µM
same,"ED50, inhibition of calcium ionophore dermal inflammation in the guinea pig ear",[10],0.7 mg/ear
same,"Inhibition of LTB4-induced neutrophil granulation, range",[11],1 to 3 µM
same,Cmax,[1]; listed as HMP,13000 ng/mL
same,Tmax,[1]; listed as HMP,2.0 h
same,AUC,[1]; listed as HMP,65000 ng·h/mL
same,"Inhibition of human neutrophil adhesion to LTB4-stimulated umbilical vein endothelial cells, range",[12],0.3 to 1.0 µM
same,Peak Change from Baseline Alanine Aminotransferase (multiple),"[2]; daily dose 75 mg, cumulative 375 mg over 5 days",1 multiple
same,Peak Change from Baseline Alanine Aminotransferase (multiple),"[2]; daily dose 100 mg, cumulative 500 mg over 5 days",1 multiple
same,Peak Change from Baseline Alanine Aminotransferase (multiple),"[2]; daily dose 125 mg, cumulative 625 mg over 5 days",2 multiple
same,Peak Change from Baseline Alanine Aminotransferase (multiple),"[2]; daily dose 150 mg, cumulative 750 mg over 5 days, listed as HMP",2 multiple
same,Peak Change from Baseline Alanine Aminotransferase (multiple),"[2]; daily dose 175 mg, cumulative 875 mg over 5 days",2 multiple
same,Peak Change from Baseline Alanine Aminotransferase (multiple),"[2]; daily dose 200 mg, cumulative 1000 mg over 5 days",1 multiple
same,Peak Change from Baseline Alanine Aminotransferase (multiple),"[2]; daily dose 225 mg, cumulative 1125 mg over 5 days",0 multiple
same,Peak Change from Baseline Alanine Aminotransferase (multiple),"[2]; daily dose 300 mg, cumulative 1500 mg over 5 days",−.5 multiple
same,Peak Change from Baseline Alanine Aminotransferase (multiple),"[2]; daily dose 450 mg, cumulative 2250 mg over 5 days",0 multiple
same,Peak Change from Baseline Alanine Aminotransferase (multiple),"[2]; daily dose 600 mg, cumulative 3000 mg over 5 days",2 multiple
same,Peak Change from Baseline Alanine Aminotransferase (multiple),"[2]; daily dose 750 mg, cumulative 3750 mg over 5 days",1 multiple
same,Peak Change from Baseline Alanine Aminotransferase (multiple),"[2]; daily dose 900 mg, cumulative 4500 mg over 5 days",1 multiple
same,doses administered without excessive hepatotoxicity,"[2]; humans, 4500 mg over five days",up to 900 mg/day
same,tolerability,"[2]; intermittent dosing: 5 days, 9 days without exposure, 5 days, total exposure 9000 mg",improved even further
same,ED50,[13],20 mg/kg
same,AUC of dissolution over the range of pH,[3]; listed as HMP,163 %·pH units
same,Dissolution (%),"[3]; pH 5.0, listed as HMP",6%
same,Dissolution (%),"[3]; pH 5.5, listed as HMP",18%
same,Dissolution (%),"[3]; pH 6.0, listed as HMP",29%
same,Dissolution (%),"[3]; pH 6.5, listed as HMP",50%
same,Dissolution (%),"[3]; pH 7.0, listed as HMP",81%
"des-alanyl-1, serine-125 human interleukin-2 [IL-2]",objective response rate,"[7]; patients with metastatic renal cell cancer, after a single course of treatment with IL-2",10-15%
